# ChEMBL document CHEMBL1201862, “PubChem BioAssay data set” (2004)
# Active and inactive are the calls of the source.
# Columns and labels:
# [1] = Luminescence-based counterscreen assay for KLF5 inhibitors: dose response cell-based high throughput screening assay to identify cytotoxic compounds using the IEC-6 intestinal epithelial cell line. [Related pubchem assays: 1700 (Primary screen.), 1834 (Confirmation screen.), 1858 (Summary AID.), 1905 (Counterscreen.)]; format: functional
# [2] = alpha-synuclein stem-loop luciferase translation blockers – H4 neuroglioma cells, luminescence, confirmation (AID 1988); format: functional, cell-based
# [3] = target: Protein-tyrosine kinase 2-beta (Homo sapiens, UniProt Q14289);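 further: potency of inhibitors of PYK2 kinase phosphorylation of poly-GT substrate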
# [4] = luciferase reporter signal suppression in cells – H4 neuroglioma cells, luminescence, dose response (AID 1990); format: functional, cell-based
# Bcl-2-like protein 10 = Bcl-2-like protein 10 (Homo sapiens, UniProt Q9HD36); experiment: Bcl-B/TR3 peptide binding disruption – biochemical, fluorescence polarization, FITC-TR3 peptide, selectivity assay for Bfl-1 inhibitor project, primary screen (AID 748);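 further: fluorescence polarization from a fluorescein-labelled TR3 peptide binding purified Bcl-B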
# Bcl-2-like protein 10, sequence (Q9HD36 whole entry): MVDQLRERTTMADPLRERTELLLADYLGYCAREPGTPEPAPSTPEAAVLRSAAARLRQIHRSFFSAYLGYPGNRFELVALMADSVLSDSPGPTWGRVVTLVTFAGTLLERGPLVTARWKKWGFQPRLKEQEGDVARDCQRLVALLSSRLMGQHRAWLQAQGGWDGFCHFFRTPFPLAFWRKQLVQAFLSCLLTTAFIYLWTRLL
# [5] = target: Neurotensin receptor type 1 (Homo sapiens, UniProt P30989); format: functional;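 further: Image-based confirmatory dose-response assay measuring agonist activity at NTR1; NTR1-expressing U2OS osteosarcoma cells imaged for beta-arrestin GFP spot formation; agonist potency where compounds increase beta-arrestin recruitment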
# Neurotensin receptor type 1, sequence (P30989 whole entry): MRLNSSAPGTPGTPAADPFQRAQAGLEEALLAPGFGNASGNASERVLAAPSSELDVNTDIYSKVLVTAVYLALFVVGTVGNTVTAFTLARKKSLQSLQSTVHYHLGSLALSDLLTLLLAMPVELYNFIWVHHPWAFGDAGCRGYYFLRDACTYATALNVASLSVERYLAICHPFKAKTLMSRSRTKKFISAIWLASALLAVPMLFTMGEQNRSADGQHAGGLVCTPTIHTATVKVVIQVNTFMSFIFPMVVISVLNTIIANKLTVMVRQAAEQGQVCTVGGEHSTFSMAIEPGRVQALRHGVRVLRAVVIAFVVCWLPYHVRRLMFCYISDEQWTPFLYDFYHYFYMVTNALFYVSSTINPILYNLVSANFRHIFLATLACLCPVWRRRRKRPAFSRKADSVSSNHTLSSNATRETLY
# Mucolipin-3 = Mucolipin-3 (Homo sapiens, UniProt Q8TDD5); experiment: Dose response cell-based high-throughput screening assay for agonists of the transient receptor potential channel ML3 (TRPML3). [Related pubchem assays: 1526, 1424, 1448 ]; format: functional
# Mucolipin-3, sequence (Q8TDD5 whole entry): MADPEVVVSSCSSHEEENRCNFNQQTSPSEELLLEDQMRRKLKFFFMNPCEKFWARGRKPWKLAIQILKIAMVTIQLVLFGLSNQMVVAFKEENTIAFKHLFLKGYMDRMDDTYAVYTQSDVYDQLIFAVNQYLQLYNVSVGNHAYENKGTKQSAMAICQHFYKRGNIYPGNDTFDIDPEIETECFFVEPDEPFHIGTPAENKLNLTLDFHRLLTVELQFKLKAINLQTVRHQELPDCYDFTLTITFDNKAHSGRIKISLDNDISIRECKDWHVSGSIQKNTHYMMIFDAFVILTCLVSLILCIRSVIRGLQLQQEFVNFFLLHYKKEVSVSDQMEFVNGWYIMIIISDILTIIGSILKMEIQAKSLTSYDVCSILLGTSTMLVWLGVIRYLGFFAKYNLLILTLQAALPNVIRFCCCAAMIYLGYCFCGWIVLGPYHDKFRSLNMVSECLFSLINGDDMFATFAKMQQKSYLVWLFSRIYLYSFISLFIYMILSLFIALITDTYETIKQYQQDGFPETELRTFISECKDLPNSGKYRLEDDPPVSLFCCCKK
# Ion channel NompC = Ion channel NompC (Danio rerio, UniProt Q7T1G6); experiment: Fluorescence counterscreen assay for TRPML3 agonists: dose response cell-based high-throughput screening assay to identify agonists of the transient receptor potential channel N1 (TRPN1). [Related pubchem assays: 1526, 1424, 1448 ]; format: functional
# Ion channel NompC, sequence (Q7T1G6 whole entry, the tested form may be a part): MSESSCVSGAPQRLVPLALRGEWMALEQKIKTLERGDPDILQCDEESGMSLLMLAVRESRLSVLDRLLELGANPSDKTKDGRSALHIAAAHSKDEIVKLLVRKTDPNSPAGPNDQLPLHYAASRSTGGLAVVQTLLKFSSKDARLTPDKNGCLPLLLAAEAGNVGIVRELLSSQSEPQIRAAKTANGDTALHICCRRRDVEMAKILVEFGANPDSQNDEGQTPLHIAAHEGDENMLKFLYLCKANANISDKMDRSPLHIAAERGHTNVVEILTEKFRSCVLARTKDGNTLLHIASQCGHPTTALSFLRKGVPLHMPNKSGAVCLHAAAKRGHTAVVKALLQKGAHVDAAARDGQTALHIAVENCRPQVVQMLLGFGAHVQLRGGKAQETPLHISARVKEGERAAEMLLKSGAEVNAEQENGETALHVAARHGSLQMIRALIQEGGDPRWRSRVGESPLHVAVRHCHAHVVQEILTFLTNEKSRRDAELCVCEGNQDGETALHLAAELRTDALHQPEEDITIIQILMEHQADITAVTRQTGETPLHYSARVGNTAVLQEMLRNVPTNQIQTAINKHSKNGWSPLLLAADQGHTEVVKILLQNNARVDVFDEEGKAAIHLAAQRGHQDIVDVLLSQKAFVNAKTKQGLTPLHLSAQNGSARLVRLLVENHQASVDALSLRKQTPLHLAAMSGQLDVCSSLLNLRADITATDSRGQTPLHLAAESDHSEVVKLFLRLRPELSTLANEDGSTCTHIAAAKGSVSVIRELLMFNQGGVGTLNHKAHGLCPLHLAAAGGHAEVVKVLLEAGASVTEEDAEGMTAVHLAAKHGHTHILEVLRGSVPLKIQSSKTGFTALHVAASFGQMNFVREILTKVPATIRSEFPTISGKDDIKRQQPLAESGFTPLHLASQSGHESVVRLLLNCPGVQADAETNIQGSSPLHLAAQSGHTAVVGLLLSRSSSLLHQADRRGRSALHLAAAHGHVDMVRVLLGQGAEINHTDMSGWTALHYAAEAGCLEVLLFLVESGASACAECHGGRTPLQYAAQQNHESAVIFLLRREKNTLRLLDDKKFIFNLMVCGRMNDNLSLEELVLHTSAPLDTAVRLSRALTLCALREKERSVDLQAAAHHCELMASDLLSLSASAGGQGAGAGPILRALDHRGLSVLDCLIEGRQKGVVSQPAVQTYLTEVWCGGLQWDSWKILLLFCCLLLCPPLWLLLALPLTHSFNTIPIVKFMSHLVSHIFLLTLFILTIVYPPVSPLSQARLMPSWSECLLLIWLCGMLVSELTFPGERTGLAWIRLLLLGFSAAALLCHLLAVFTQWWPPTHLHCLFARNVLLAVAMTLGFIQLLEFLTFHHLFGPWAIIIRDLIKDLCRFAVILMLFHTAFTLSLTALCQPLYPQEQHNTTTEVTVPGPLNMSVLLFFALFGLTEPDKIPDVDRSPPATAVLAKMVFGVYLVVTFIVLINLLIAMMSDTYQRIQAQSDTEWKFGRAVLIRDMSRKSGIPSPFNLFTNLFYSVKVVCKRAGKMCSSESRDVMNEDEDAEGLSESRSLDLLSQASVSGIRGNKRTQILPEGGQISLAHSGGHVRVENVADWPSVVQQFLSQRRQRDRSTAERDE
# [6] = target: T1, Hepatocyte nuclear factor 4-alpha (Homo sapiens, UniProt P41235); format: functional, cell-based;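 further: biochemical luminescence-based dose-response counterscreen measuring inhibition of HNF4 dimerization, run alongside a screen for blockers of ABHD5–perilipin-5 interaction; split luciferase complementation of HNF4 fusion proteins in cell lysate measuring dimerization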
# T1 sequence (P41235 whole entry): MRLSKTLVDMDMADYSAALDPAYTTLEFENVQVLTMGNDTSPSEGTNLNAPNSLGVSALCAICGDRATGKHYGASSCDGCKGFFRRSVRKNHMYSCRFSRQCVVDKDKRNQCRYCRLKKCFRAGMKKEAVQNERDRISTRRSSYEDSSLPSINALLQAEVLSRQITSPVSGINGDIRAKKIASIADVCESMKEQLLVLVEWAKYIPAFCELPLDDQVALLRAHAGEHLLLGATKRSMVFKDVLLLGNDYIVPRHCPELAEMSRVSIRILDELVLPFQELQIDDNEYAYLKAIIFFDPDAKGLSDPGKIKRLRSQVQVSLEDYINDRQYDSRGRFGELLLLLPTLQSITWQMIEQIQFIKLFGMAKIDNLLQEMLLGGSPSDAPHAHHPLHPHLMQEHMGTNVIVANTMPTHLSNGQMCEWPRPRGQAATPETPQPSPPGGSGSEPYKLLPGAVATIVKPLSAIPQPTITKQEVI
# Hexokinase HKDC1 = target: T2, Hexokinase HKDC1 (Homo sapiens, UniProt Q2TB90); experiment: inhibition of HKDC1 glucose phosphorylation – biochemical, W721R variant, dose response (AID 504729); format: functional
# T2 sequence (Q2TB90 whole entry): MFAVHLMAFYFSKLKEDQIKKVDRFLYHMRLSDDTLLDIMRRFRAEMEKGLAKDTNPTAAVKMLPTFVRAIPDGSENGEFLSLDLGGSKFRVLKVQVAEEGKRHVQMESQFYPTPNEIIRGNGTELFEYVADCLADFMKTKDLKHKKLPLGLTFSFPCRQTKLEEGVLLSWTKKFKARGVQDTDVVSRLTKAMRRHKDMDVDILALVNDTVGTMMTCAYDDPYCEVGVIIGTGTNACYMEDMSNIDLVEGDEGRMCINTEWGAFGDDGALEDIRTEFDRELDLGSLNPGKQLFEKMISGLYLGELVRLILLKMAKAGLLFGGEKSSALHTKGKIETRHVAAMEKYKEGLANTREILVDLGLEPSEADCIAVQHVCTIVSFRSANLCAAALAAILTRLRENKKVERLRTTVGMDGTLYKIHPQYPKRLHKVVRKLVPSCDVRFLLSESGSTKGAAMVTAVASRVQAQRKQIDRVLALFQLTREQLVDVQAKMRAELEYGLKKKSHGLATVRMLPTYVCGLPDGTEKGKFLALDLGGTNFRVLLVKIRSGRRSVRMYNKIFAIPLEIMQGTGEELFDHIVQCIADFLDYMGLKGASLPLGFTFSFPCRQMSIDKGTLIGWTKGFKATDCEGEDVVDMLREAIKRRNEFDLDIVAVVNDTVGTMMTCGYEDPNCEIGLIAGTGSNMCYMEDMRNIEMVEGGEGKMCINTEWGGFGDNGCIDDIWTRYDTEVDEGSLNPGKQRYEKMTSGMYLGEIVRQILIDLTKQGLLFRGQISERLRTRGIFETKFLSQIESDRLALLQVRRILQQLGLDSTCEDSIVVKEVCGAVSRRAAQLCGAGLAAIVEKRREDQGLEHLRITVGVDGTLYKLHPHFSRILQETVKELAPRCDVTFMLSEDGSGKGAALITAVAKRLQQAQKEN
# [7] = target: Glucose-6-phosphate 1-dehydrogenase (Homo sapiens, UniProt P11413); experiment: inhibition of Homo sapiens G6PD, dose series – biochemical, fluorescence, selectivity assay for P. falciparum G6PD inhibitor project, dose response (AID 504792); format: functional
# Glucose-6-phosphate 1-dehydrogenase, sequence (P11413 whole entry): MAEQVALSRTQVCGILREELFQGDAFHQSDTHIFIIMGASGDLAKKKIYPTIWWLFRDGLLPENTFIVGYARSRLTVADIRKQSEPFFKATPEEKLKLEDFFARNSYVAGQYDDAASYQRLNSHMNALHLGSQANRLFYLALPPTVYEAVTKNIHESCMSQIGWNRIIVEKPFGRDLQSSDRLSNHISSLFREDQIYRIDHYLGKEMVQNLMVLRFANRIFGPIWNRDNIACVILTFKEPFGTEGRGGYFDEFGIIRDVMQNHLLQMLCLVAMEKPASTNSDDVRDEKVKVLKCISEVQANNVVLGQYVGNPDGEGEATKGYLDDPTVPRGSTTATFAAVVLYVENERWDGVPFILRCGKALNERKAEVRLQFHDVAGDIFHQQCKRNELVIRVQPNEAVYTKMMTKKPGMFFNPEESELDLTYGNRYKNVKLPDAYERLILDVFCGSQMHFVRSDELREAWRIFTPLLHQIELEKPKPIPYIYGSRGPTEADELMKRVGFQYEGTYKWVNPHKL
# Cytochrome P450 2C9 = Cytochrome P450 2C9 (Homo sapiens, UniProt P11712); settings: Potency
# Cytochrome P450 2C9, sequence (P11712 whole entry): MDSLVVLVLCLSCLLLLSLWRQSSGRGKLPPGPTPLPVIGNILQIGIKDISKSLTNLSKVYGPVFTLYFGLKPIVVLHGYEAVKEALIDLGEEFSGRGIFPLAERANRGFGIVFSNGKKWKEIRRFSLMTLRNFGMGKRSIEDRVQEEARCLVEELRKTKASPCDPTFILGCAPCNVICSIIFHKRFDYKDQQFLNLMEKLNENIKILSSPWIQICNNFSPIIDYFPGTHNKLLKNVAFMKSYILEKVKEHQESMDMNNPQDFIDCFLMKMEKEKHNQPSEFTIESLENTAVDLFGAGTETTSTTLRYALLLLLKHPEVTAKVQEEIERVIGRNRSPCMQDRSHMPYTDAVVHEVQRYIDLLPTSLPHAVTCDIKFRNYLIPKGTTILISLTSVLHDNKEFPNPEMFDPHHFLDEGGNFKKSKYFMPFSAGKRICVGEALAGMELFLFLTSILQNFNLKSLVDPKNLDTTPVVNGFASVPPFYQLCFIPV
# [8] = viability of uninfected HEp-2 cells – cell-based, HTS, cytotoxicity control for RSV inhibitor project, dose response (AID 2410); format: functional; settings: human respiratory syncytial virus
# [9] = Luminescence Cell-Based Dose Confirmation HTS to Identify Inhibitors of Polyadenylation.; format: functional
# [10] = antiviral protection against BTV-induced cell death – arbovirus, BSR cells, confirmation (AID 1250); format: functional;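 further: protection from viral cytopathic effect measured as cell viability by ATP luminescence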
# [11] = target: T3, Corticotropin-releasing factor receptor 2/Corticotropin-releasing factor-binding protein (Homo sapiens, UniProt P24387+Q13324); experiment: activators of CRF receptor 2 with binding protein – uHTS hits, confirmation (AID 602473); format: functional; settings: read-out: EC50_Mean
# T3 sequence (Q13324 whole entry): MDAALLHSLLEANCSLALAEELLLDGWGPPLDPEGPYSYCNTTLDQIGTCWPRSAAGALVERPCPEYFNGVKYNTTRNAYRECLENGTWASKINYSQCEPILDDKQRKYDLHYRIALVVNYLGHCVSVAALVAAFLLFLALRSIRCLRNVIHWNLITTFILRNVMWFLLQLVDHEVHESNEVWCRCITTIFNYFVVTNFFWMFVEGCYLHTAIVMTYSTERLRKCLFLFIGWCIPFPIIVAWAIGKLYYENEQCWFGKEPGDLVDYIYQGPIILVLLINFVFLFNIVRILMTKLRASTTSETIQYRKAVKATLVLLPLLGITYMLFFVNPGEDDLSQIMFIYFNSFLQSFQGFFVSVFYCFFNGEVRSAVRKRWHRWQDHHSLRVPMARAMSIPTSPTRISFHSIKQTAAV
# T3 sequence (P24387 whole entry): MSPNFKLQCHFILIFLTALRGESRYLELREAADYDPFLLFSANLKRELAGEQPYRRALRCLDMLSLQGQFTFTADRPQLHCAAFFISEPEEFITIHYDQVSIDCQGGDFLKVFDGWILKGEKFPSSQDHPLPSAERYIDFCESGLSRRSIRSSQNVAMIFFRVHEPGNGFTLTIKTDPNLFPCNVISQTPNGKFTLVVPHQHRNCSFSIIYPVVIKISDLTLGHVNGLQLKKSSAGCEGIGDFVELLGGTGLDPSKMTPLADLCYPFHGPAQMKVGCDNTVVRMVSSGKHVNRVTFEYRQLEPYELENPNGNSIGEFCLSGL
# [12] = target: T4, Heat shock factor protein 1 (Mus musculus, UniProt P38532); experiment: decrease of HSF1-responsive luciferase luminescence – cell-based, NIH3T3, dose retest, confirmation (AID 2382); format: functional;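 further: NIH3T3 fibroblasts with HSF1-driven luciferase reporter stressed by proteasome inhibitor MG132; luminescence from HSF1-driven luciferase expression after 8 hours of MG132 stress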
# T4 sequence (P38532 whole entry): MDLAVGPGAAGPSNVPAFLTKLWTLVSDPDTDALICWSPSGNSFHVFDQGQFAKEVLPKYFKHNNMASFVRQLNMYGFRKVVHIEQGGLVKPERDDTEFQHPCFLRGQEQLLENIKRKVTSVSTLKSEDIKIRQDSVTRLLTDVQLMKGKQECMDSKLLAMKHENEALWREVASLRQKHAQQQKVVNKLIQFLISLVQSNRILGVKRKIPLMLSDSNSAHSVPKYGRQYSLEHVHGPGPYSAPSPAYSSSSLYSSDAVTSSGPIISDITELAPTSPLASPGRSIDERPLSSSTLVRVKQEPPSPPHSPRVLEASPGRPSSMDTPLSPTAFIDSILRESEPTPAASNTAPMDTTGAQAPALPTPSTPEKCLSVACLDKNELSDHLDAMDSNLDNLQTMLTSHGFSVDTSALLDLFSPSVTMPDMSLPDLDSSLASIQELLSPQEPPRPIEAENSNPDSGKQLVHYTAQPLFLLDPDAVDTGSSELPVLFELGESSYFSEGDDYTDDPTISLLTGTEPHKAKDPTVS
# [13] = target: Luciferin 4-monooxygenase (Photinus pyralis, UniProt P08659); experiment: inhibition of purified Photinus pyralis luciferase – biochemical, luminescence, dose response (AID 1891)
# Luciferin 4-monooxygenase, sequence (P08659 whole entry): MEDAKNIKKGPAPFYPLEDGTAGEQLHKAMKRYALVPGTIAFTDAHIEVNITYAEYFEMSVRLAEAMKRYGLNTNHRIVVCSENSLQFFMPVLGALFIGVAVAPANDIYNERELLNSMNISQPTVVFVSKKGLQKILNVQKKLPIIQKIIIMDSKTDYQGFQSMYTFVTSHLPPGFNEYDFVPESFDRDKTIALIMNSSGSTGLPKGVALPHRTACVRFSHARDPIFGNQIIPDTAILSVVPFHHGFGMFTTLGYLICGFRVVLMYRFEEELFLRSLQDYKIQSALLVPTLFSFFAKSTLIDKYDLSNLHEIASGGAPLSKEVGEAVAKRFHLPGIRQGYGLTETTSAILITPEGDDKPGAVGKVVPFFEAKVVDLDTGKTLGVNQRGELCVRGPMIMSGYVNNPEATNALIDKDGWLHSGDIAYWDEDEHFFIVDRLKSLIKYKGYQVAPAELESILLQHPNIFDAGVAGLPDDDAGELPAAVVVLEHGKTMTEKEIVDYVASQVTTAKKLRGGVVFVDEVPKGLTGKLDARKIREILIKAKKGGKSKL
# [14] = Luminescence Cell-Based Dose Confirmation HTS to Identify Inhibitors of Platelet Dense Granule Release. [Related pubchem assays: 1663 (Primary HTS), 1678 (Summary of Project)]; format: functional
# [15] = Luminescence Cell-Based Dose Response HTS to Identify Inhibitors of 5'UTR Stem-Loop Driven Prion Protein mRNA Translation in H4 Neuroglioblastoma Cells. [Related pubchem assays: 1827 (Project Summary), 1813 (Primary HTS)]; format: functional
# [16] = tested on: Streptococcus sp. 'group A'; experiment: Streptococcus pyogenes SK(-)GAS viability under kanamycin – luminescence, BacTiterGlo, confirmation, counter-screen for streptokinase expression inhibitor project, dose response (AID 1900); format: functional, organism-based
# X-box-binding protein 1 = X-box-binding protein 1 (Homo sapiens, UniProt P17861); format: functional, Cricetulus griseus;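 further: confirmatory dose-response counter-screen serving a CHOP assay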
# X-box-binding protein 1, sequence (P17861 whole entry): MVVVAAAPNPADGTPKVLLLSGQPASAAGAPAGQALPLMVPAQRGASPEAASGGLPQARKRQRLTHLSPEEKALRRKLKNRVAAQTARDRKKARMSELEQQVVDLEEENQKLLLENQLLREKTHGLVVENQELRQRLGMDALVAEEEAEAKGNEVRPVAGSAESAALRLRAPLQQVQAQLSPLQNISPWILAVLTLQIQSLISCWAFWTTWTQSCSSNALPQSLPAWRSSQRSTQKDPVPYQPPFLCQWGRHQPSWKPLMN
# Streptococcus = experiment: GAS UMAA2166 growth inhibition – luminescence, BacTiterGlo, counter-screen for streptokinase expression inhibitor project, dose response (AID 1915); format: functional, organism-based;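 further: potency for reduction of bacterial viability or growth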
# Streptokinase A = target: T5, Streptokinase A (Streptococcus pyogenes serotype M1, UniProt P10520); experiment: viability-normalized secreted streptokinase activity reduction – plasminogen activation absorbance, OD405, dose response (AID 1914); format: functional, Streptococcus pyogenes M1 GAS;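 further: secreted streptokinase activity via plasminogen activation per viability signal from cell pellet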
# T5 sequence (P10520 whole entry): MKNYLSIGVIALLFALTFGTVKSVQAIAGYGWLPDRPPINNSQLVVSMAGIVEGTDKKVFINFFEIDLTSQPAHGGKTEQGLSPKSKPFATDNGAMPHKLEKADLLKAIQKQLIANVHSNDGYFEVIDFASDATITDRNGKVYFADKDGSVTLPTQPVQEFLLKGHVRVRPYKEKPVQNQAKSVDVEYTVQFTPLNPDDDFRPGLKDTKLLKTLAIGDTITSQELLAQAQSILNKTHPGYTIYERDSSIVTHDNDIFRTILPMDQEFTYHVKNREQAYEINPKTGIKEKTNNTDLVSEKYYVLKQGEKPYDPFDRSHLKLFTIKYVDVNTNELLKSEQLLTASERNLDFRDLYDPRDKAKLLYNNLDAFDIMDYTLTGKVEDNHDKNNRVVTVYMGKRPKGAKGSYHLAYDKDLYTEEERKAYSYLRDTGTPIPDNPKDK
structure (smiles),measurement,setting,value
COc1cc(/N=C/c2c(O)[nH]c3ccccc23)cc(OC)c1OC,IC50,[1],> 39.8 µM (not active)
same,EC50,[2],0.108 µM (active)
same,IC50,[3],3.15 µM (active)
same,EC50,[4],< 0.1 µM (active)
O=c1c([N+](=O)[O-])cc(C(F)(F)F)cn1Cc1cccc(Cl)c1,IC50,Bcl-2-like protein 10,> 100 µM (inactive)
COC(=O)COc1ccc(/C=N/NC(=O)CN(c2ccccc2OC)S(=O)(=O)c2ccccc2)cc1,EC50,[5],6.65 µM (active)
COc1ccc(N2C(=O)C(F)(F)C2c2ccccc2F)cc1 (centres undefined),EC50,Mucolipin-3,3.96 µM (active)
same,EC50,Ion channel NompC,> 29.9 µM (not active)
COc1ccc(-n2ncc3c(N4CCN(Cc5ccccc5)CC4)ncnc32)cc1,EC50,[5],35.9 µM (inactive)
Cc1ccc(SC2=C(Sc3ccc(C)cc3)C(=O)c3ccccc3C2=O)cc1,IC50,[6],1.38 µM (active)
same,IC50,Hexokinase HKDC1,15.9 µM (active)
same,IC50,[7],> 80 µM (inactive)
CC(C)C[C@@H](CC(=O)N[C@@H](CCC(=O)O)CC(=O)O)NC(=O)[C@@H]1CCCC[C@H]1NC(=O)C[C@@H](NC(=O)C[C@H](CO)NC(=O)[C@@H]1CCCC[C@H]1N)C(C)C,AC50,Cytochrome P450 2C9,20 µM (inconclusive)
Cc1cc(Cl)cc(C)c1OCCn1ccnc1,CC50,[8],33.5 µM (active)
same,IC50,cells,32.9 µM (active)
Cc1cc(Cl)ccc1C(=O)C1CCCN(C(=O)c2snnc2C)C1 (centres undefined),EC50,[9],> 120 µM (not active)
CCCCC1=NN2C(=N)/C(=C/c3c[nH]c4ccccc34)C(=O)N=C2S1,IC50,[10],61.7 µM (active)
Cc1cccc(C)c1Nc1nc2ccccc2o1,IC50,[10],26.7 µM (active)
COc1ccccc1N(CC(=O)N1CCCCC1)S(=O)(=O)c1ccccc1,EC50,[11],8.61 µM (active)
same,EC50,Mucolipin-3,0.59 µM (active)
same,EC50,Ion channel NompC,12.4 µM (not active)
COc1ccc(OC)c(N/C=C/C(=O)c2ccccc2)c1,EC50,[12],0.476 µM (inconclusive)
same,EC50,[13],0.276 µM (active)
same,IC50,[1],> 39.8 µM (not active)
same,EC50,[14],0.982 µM (active)
same,EC50,[2],3.8 µM (active)
same,EC50,[4],6.32 µM (inconclusive)
same,EC50,[15],1.35 µM (active)
O=C(c1ccc(F)cc1)N1CCN2C(=O)c3ccccc3C12c1ccccc1 (centres undefined),IC50,cells,31.2 µM (active)
COC(=O)C(Nc1ccccc1Cl)(c1cc(C)c(O)c(C)c1)C(F)(F)F (centres undefined),EC50,[16],1.58 µM (active)
same,Absolute IC50 (XBP1),X-box-binding protein 1,< 10 µM
same,EC50,Streptococcus,9.48 µM (active)
same,EC50,Streptokinase A,17.2 µM (active)
CC(=O)OCC1OC(C#Cc2ccc(C(C)(C)C)cc2)C=CC1OC(C)=O (centres undefined),AC50,Cytochrome P450 2C9,6.31 µM (inconclusive)
